The assay deals with BV-2. Description: Antiinflammatory activity in mouse BV2 cells assessed as inhibition of LPS-induced nitric oxide production after 24 hrs by griess assay. The assay is classed as functional, cell-based. Particulars: BV-2, 24 h. A general note: Nitrite, measured by Griess reagent, commonly stands in for NO production.

Bounds are passed on as bounds.

In the case of `C=C(C)C(O)Cc1c(OC)cc(OC)c2ccc(=O)oc12` (stereo unspecified), the 50% inhibitory concentration (IC50) came out at 15.5 µM.
As to `OC/C=C/c1ccc(O)c(/C=C/[C@@]23CCC(CO)=C[C@H]2c2cc(/C=C/CO)ccc2O[C@H]3O)c1`, the IC50 is above 50 µM.
To `C=C(C)/C=C/c1c(OC)ccc2ccc(=O)oc12` belongs 11.8 µM; to `C=C(C)[C@H](OC(=O)CC(C)C)[C@H](O)c1c(OC)ccc2ccc(=O)oc12`, 21.3 µM; to `OC/C=C/c1ccc(O)c(/C=C/[C@]23CCC(CO)=C[C@H]2c2cc(/C=C/CO)ccc2O[C@H]3O)c1`, 8.6 µM.
To `COc1ccc2ccc(=O)oc2c1C(=O)C(OC(=O)CC(C)C)=C(C)C` belongs 37.6 µM.
As for `C=C(C)[C@H](O)[C@H](OC(=O)CC(C)C)c1c(OC)ccc2ccc(=O)oc12`, the figure is 26.4 µM.
As for `C=C(C)[C@@H]1O[C@H](C(=C(C)C)c2c(OC)ccc3ccc(=O)oc23)O[C@@H]1c1c(OC)ccc2ccc(=O)oc12`, the IC50 was found to be 37.6 µM.
To `C=C(C)[C@H](O)[C@H](C[C@@](C)(O)/C=C/c1c(OC)ccc2ccc(=O)oc12)c1c(OC)ccc2ccc(=O)oc12` belongs 28.9 µM; to `COc1ccc2ccc(=O)oc2c1/C=C\C(C)=O`, 16.9 µM; to `O=c1c(O)c(-c2ccc(O)c(O)c2)oc2cc(O)cc(O)c12` [QUERCETIN], 7.2 µM.

In general, IC50 refers to the concentration needed to halve the response being measured.

The record behind these values is ChEMBL document CHEMBL4130612, “Anti-Inflammatory Prenylated Phenylpropenols and Coumarin Derivatives from Murraya exotica” (J Nat Prod, 2018).
